Here are results for six molecules from patent US20070116839A1, “High-Potency Sweetener Composition With C-Reactive Protein Reducing Substance and Compositions Sweetened Therewith” (THE COCA-COLA COMPANY, priority 2005, published 2007).

Structures are written as SMILES. Some results are limits rather than exact numbers.

The nature of data set [1]: Sensory evaluation of sweetness linger and sugar-like taste by expert panel. The format is in vivo. Also noted: key: 0=no sweetness linger; 1=very slight sweetness linger; 2=slight sweetness linger; 3=moderate sweetness linger; 4=moderately high sweetness linger; 5=high sweetness linger. Conditions: for Sweetness linger: scale 0-5; for Sweetness Linger rating (defined for the protocol): scale anchors: sucrose, 500 ppm REBA control sample. The procedure:
In a particular embodiment, a panel of assessors is used to measure the reduction of sweetness linger. Briefly described, a panel of assessors (generally 8 to 12 individuals) is trained to evaluate sweetness perception and measure sweetness at several time points from when the sample is initially taken into the mouth until 3 minutes after it has been expectorated. […] A decrease in score for a time point measured after the sample has cleared the mouth indicates there has been a reduction in sweetness perception.
The panel of assessors may be trained using procedures well known to those of ordinary skill in the art. In a particular embodiment, the panel of assessors may be trained using the Spectrum™ Descriptive Analysis Method (Meilgaard et al, Sensory Evaluation Techniques, 3rd edition Chapter 11). Desirably, the focus of training should be the recognition of and the measure of the basic tastes; specifically, sweet. In order to ensure accuracy and reproducibility of results, each assessor should repeat the measure of the reduction of sweetness linger about three to about five times per sample, taking at least a five minute break between each repetition and/or sample and rinsing well with water to clear the mouth.
Generally, the method of measuring sweetness comprises taking a 10 mL sample into the mouth, holding the sample in the mouth for 5 seconds and gently swirling the sample in the mouth, rating the sweetness intensity perceived at 5 seconds, expectorating the sample (without swallowing following expectorating the sample), rinsing with one mouthful of water (e.g., vigorously moving water in mouth as if with mouth wash) and expectorating the rinse water, rating the sweetness intensity perceived immediately upon expectorating the rinse water, waiting 45 seconds and, while wating those 45 seconds, identifying the time of maximum perceived sweetness intensity and rating the sweetness intensity at that time (moving the mouth normally and swallowing as needed), rating the sweetness intensity after another […], rating the sweetness intensity after another 60 seconds (cumulative 120 seconds after rinse), and rating the sweetness intensity after still another 60 seconds (cumulative 180 seconds after rinse), Between samples take a 5 minute break, rinsing well with water to clear the mouth.
Sensory evaluation of the samples prepared in Example Set G was carried out under the following protocol, similar to that described hereinabove. In this test protocol, none of the samples were swallowed. […] Immediately upon sensing maximal sweetness, the sample was expectorated, the mouth was rinsed with water and the rate of sweetness decay (“Sweetness Linger”) was measured, where attention was focused on the sweetness 3-4 min after the water rinse. […]

Data set [2] in a line: Sweetness stated as sucrose equivalent. It is filed as in vivo.
The nature of data set [3]: Rate of dissolution in H2O at 25° C. of rebaudioside A polymorph and amorphous forms. It is filed as physicochemical.
The format of data set [4] is physicochemical. The procedure:
A solution of rebaudioside A (>97% pure by HPLC ) was prepared in double distilled water (12.5 gm in 50 mL, 25% concentration) by stirring the mixture at 40° C. for 5 minutes. An amorphous form of rebaudioside A was formed by immediately using the clear solution for spray drying with the Lab-Plant spray drier SD-04 instrument (Lab-Plant Ltd., West Yorkshire, U.K.). The solution was fed through the feed pump into the nozzle atomizer which atomized it into a spray of droplets with the help of a constant flow of nitrogen/air. […] This dry powder (11-12 g, H2O6.74%) was discharged continuously from the drying chamber and was collected in a bottle.

Take `C=C1C[C@@]23CC[C@H]4[C@@](C)(CCC[C@@]4(C)C(=O)O[C@@H]4O[C@H](CO)[C@@H](O)[C@H](O)[C@H]4O)[C@@H]2CC[C@]1(O[C@@H]1O[C@H](CO)[C@@H](O)[C@H](O[C@@H]2O[C@H](CO)[C@@H](O)[C@H](O)[C@H]2O)[C@H]1O[C@@H]1O[C@H](CO)[C@@H](O)[C@H](O)[C@H]1O)C3` [REBA, rebaudioside A]: the Sweetness linger in data set [1] (Example Set G: 400 ppm REBA in citric acid/potassium citrate composition equivalent to diet lemon-lime beverage, with additive, sugar control 8 g in 100 ml citrate buffer) worked out at 5; in data set [1] (Example Set H: 500 ppm REBA (H41: 360 ppm) in carbon-treated water, phosphoric acid (75%) to pH 2.4-2.5, with additive, sugar control 10 g in 100 ml) it was 5. In addition, the “Sweetness Linger rating (defined for the protocol)” value in data set [1] was 5. Besides, the results for the “Sweetness equivalent to sucrose” value in data set [2] (180 ppm rebaudioside A in beverage diluted 1:1 with rebaudioside A/citrate composition) and in data set [2] (400 ppm REBA in citric acid/potassium citrate composition) were 5 % sucrose and 8 g sucrose, respectively.

Turning to `C=C1C[C@@]23CC[C@H]4[C@@](C)(CCC[C@@]4(C)C(=O)O[C@@H]4O[C@H](CO)[C@@H](O)[C@H](O)[C@H]4O)[C@@H]2CC[C@]1(O[C@@H]1O[C@H](CO)[C@@H](O)[C@H](O[C@@H]2O[C@H](CO)[C@@H](O)[C@H](O)[C@H]2O)[C@H]1O[C@@H]1O[C@H](CO)[C@@H](O)[C@H](O)[C@H]1O)C3` [Form 2, rebaudioside A], the “Rate of dissolution in H2O at 25° C.” value in data set [3] is less than 30 %/5 minutes.

`C=C1C[C@@]23CC[C@H]4[C@@](C)(CCC[C@@]4(C)C(=O)O[C@@H]4O[C@H](CO)[C@@H](O)[C@H](O)[C@H]4O)[C@@H]2CC[C@]1(O[C@@H]1O[C@H](CO)[C@@H](O)[C@H](O[C@@H]2O[C@H](CO)[C@@H](O)[C@H](O)[C@H]2O)[C@H]1O[C@@H]1O[C@H](CO)[C@@H](O)[C@H](O)[C@H]1O)C3` [Form 4, rebaudioside A]: the “Rate of dissolution in H2O at 25° C.” value in data set [3] is given as more than 35 %/5 minutes. In data set [4], the “Solubility in water at room temperature” value is given as > 35,0%.

With `C=C1C[C@@]23CC[C@H]4[C@@](C)(CCC[C@@]4(C)C(=O)O[C@@H]4O[C@H](CO)[C@@H](O)[C@H](O)[C@H]4O)[C@@H]2CC[C@]1(O[C@@H]1O[C@H](CO)[C@@H](O)[C@H](O[C@@H]2O[C@H](CO)[C@@H](O)[C@H](O)[C@H]2O)[C@H]1O[C@@H]1O[C@H](CO)[C@@H](O)[C@H](O)[C@H]1O)C3` [Form 1, rebaudioside A], the “Rate of dissolution in H2O at 25° C.” value in data set [3] was less than 0.2 %/60 minutes.

As to `C=C1C[C@@]23CC[C@H]4[C@@](C)(CCC[C@@]4(C)C(=O)O[C@@H]4O[C@H](CO)[C@@H](O)[C@H](O)[C@H]4O)[C@@H]2CC[C@]1(O[C@@H]1O[C@H](CO)[C@@H](O)[C@H](O[C@@H]2O[C@H](CO)[C@@H](O)[C@H](O)[C@H]2O)[C@H]1O[C@@H]1O[C@H](CO)[C@@H](O)[C@H](O)[C@H]1O)C3` [Form 3, rebaudioside A], the “Rate of dissolution in H2O at 25° C.” value in data set [3] is on record as more than 30 %/5 minutes.

As to `OC[C@H]1O[C@@](CO)(O[C@H]2O[C@H](CO)[C@@H](O)[C@H](O)[C@H]2O)[C@@H](O)[C@@H]1O` [sucrose], the “Sweetness Linger rating (defined for the protocol)” value in data set [1] is 0.
